In the kinase profiling compilation of Christmann-Franck et al. (2016):

Tests used:
Test in all cases: KINOMEscan competition binding
Conditions in all cases: compound 1.0 µM
[1] = biological target: ACVR2B (human) (UniProt Q13705)
[2] = biological target: BMPR1B (human) (UniProt O00238)
[3] = biological target: BTK (human) (UniProt Q06187)
[4] = biological target: CDK11B (human) (UniProt P21127)
[5] = biological target: CDK7 (human) (UniProt P50613)
[6] = system: CPK1 (P.falciparum)
[7] = biological target: CRK2 (P.falciparum) (UniProt P61075)
[8] = biological target: CSNK1G1 (human) (UniProt Q9HCP0)
[9] = biological target: CaMK1 (human) (UniProt Q14012)
[10] = biological target: DCLK1 (human) (UniProt O15075)
[11] = system: EGFR (human), P00533 [P753S; 747-752 del]
[12] = biological target: EPHB3 (human) (UniProt P54753)
[13] = biological target: FYN (human) (UniProt P06241)
[14] = biological target: HIPK1 (human) (UniProt Q86Z02)
[15] = biological target: HIPK4 (human) (UniProt Q8NE63)
[16] = biological target: LIMK1 (human) (UniProt P53667)
[17] = biological target: LIMK2 (human) (UniProt P53671)
[18] = biological target: LYN (human) (UniProt P07948)
[19] = biological target: MAPK11 (human) (UniProt Q15759)
[20] = biological target: MAPK8 (human) (UniProt P45983)
[21] = biological target: MAPKAPK2 (human) (UniProt P49137)
[22] = system: MET (human), P08581 [M1250T]
[23] = biological target: MYLK2 (human) (UniProt Q9H1R3)
[24] = biological target: NEK6 (human) (UniProt Q9HC98)
[25] = biological target: PDPK1 (human) (UniProt O15530)
[26] = biological target: PHKG1 (human) (UniProt Q16816)
[27] = system: PIK3CA (human), P42336 [H1047Y]
[28] = biological target: PIP4K2C (human) (UniProt Q8TBX8)
[29] = biological target: PKMYT1 (human) (UniProt Q99640)
[30] = biological target: PRKAA2 (human) (UniProt P54646)
[31] = biological target: PRKX (human) (UniProt P51817)
[32] = biological target: RIPK2 (human) (UniProt O43353)
[33] = biological target: ROCK2 (human) (UniProt O75116)
[34] = biological target: RPS6KA2 KD2 (human) (UniProt Q15349)
[35] = biological target: RPS6KA5 KD1 (human) (UniProt O75582)
[36] = biological target: RPS6KB1 (human) (UniProt P23443)
[37] = biological target: SGK110 (human) (UniProt P0C264)
[38] = biological target: TLK1 (human) (UniProt Q9UKI8)
[39] = biological target: TNNI3K (human) (UniProt Q59H18)

Chain of NEK6 (human) (Q9HC98 whole entry, looked up): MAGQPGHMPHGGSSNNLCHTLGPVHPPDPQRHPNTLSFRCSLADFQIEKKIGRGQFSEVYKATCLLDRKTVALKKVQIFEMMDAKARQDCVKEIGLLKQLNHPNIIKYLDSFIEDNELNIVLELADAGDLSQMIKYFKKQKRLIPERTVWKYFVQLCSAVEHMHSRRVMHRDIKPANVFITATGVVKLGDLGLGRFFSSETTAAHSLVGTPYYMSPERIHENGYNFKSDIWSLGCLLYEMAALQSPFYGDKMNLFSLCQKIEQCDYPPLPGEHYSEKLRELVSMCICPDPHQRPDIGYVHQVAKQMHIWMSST
Chain of FYN (human) (P06241 whole entry, looked up): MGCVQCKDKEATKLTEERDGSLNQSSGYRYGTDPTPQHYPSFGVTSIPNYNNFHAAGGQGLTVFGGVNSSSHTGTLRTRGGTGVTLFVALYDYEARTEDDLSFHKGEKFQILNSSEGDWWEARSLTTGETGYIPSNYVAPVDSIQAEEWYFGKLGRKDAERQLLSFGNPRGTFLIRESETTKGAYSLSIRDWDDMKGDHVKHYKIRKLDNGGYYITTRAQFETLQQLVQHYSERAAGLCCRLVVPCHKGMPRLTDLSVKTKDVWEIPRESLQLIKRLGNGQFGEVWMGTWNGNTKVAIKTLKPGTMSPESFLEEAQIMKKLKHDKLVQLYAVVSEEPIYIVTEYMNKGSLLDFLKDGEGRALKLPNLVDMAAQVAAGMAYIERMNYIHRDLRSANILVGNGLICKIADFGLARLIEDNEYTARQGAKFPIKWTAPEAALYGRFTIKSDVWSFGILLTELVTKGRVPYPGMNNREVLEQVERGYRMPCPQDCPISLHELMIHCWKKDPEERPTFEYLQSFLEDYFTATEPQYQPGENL
Chain of LIMK1 (human) (P53667 whole entry, looked up): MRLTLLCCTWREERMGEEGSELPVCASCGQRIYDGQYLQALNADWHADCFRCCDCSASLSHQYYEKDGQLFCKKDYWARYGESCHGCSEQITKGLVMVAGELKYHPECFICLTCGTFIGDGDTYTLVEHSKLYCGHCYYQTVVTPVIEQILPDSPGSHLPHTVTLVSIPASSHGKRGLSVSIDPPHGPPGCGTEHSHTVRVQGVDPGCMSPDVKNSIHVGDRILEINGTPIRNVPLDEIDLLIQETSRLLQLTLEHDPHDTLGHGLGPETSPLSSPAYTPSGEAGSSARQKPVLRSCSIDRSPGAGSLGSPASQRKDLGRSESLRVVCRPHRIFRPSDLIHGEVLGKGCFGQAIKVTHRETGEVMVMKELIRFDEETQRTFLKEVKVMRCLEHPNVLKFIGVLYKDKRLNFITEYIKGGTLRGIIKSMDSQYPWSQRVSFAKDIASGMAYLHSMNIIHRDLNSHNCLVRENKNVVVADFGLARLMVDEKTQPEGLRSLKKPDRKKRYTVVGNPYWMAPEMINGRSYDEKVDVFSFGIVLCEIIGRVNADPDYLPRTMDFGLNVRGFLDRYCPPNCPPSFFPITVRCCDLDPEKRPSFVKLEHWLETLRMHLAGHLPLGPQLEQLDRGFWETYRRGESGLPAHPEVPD
Chain of CSNK1G1 (human) (Q9HCP0 whole entry, looked up): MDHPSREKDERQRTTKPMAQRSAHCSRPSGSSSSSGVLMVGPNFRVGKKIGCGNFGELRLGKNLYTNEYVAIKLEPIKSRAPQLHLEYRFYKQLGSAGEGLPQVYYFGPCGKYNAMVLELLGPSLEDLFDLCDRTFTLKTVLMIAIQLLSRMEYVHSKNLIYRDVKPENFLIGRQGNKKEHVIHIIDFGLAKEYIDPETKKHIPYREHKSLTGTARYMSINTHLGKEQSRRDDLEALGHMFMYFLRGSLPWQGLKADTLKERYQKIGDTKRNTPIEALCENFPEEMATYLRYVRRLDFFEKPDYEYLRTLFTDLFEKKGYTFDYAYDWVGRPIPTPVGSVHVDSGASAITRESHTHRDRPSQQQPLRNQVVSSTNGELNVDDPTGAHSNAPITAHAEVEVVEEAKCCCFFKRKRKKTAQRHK
Chain of MAPKAPK2 (human) (P49137 whole entry, looked up): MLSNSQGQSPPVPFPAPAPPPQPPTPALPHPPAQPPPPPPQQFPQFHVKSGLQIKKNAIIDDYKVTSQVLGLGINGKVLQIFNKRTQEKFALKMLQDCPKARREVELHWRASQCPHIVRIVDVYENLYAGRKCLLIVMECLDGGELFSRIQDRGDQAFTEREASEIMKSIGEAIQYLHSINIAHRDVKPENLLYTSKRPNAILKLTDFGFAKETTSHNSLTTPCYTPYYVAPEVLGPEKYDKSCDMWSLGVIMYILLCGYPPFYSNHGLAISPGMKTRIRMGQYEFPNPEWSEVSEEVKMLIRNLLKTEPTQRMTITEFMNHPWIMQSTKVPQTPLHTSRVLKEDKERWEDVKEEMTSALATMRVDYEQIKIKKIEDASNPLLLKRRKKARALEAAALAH
Chain of MAPK8 (human) (P45983 whole entry, looked up): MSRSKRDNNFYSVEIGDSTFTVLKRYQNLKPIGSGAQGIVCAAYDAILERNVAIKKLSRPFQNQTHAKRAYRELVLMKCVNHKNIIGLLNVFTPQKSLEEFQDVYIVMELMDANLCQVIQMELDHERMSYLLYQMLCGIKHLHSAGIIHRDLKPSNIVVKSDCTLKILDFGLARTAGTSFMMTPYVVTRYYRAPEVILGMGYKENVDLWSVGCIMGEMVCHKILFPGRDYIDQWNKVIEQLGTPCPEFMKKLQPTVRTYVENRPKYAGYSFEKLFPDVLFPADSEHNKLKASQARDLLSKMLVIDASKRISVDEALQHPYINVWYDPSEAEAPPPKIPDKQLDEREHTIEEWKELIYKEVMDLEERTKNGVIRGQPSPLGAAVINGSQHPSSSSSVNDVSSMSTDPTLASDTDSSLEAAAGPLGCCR
Chain of SGK110 (human) (P0C264 whole entry, looked up): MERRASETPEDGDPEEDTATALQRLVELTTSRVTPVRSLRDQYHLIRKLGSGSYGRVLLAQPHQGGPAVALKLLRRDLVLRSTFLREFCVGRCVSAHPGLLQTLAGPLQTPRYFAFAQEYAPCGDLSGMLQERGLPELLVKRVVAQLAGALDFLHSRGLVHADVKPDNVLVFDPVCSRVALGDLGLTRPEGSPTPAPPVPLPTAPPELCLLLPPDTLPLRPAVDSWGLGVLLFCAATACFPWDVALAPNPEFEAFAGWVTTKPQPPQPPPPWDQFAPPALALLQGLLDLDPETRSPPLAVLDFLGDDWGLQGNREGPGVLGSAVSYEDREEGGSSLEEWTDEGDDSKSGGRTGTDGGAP
Chain of BTK (human) (Q06187 whole entry, looked up): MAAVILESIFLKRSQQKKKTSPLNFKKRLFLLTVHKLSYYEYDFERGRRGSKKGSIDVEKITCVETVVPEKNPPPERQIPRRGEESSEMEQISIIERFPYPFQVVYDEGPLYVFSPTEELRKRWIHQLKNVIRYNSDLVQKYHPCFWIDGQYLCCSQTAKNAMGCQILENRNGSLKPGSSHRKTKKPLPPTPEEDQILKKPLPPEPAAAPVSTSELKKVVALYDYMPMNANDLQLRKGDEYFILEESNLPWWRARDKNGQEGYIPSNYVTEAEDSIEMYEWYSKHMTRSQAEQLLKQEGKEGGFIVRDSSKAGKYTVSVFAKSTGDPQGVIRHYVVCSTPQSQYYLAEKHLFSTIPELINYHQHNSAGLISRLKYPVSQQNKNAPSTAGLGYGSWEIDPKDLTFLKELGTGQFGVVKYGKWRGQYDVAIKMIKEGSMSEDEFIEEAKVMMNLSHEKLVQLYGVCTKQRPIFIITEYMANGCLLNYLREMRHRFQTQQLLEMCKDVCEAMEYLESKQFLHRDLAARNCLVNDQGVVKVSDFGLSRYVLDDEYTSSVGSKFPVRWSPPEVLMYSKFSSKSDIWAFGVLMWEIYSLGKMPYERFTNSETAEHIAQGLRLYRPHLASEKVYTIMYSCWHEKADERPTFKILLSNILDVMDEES
Chain of HIPK4 (human) (Q8NE63 whole entry, looked up): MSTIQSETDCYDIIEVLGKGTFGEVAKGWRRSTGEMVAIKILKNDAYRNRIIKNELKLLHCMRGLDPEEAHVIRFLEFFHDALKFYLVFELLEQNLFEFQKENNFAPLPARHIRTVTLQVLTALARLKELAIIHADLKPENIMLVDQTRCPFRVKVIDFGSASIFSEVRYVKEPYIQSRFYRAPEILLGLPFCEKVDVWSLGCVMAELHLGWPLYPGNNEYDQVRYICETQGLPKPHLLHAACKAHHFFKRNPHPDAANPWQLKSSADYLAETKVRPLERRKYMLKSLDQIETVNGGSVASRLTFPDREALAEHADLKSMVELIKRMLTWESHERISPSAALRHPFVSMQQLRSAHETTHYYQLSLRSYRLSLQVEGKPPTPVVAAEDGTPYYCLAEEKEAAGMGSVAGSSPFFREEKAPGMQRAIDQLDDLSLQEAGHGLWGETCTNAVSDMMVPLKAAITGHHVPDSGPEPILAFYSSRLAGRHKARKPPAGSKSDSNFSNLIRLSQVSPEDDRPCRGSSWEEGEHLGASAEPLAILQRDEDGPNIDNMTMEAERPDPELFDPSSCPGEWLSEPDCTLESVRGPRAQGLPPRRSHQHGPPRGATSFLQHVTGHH
Chain of CRK2 (P.falciparum) (P61075 whole entry, looked up): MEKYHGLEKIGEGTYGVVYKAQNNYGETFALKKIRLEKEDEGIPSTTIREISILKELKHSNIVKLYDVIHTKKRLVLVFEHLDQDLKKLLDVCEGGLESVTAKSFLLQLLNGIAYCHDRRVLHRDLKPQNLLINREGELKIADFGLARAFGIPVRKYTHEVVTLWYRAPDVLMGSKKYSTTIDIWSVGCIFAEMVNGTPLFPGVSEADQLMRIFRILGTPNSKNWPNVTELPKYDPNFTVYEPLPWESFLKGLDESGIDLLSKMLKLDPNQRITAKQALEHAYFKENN

CNc1nc(Nc2ccc(C(=O)N3CCOCC3)cc2OC)ncc1Cl
kinase still bound, per cent of control [1]: 65% | kinase still bound, per cent of control [2]: 100% | kinase still bound, per cent of control [3]: 100% | residual activity [4]: 100% | residual activity [5]: 57% | kinase still bound, per cent of control [6]: 78% | kinase still bound, per cent of control [7]: 100% | kinase still bound, per cent of control [8]: 55% | kinase still bound, per cent of control [9]: 96% | kinase still bound, per cent of control [10]: 100% | kinase still bound, per cent of control [11]: 89% | kinase still bound, per cent of control [12]: 100% | kinase still bound, per cent of control [13]: 56% | kinase still bound, per cent of control [14]: 79% | kinase still bound, per cent of control [15]: 100% | kinase still bound, per cent of control [16]: 91% | kinase still bound, per cent of control [17]: 100% | kinase still bound, per cent of control [18]: 100% | kinase still bound, per cent of control [19]: 100% | kinase still bound, per cent of control [20]: 44% | kinase still bound, per cent of control [21]: 95% | kinase still bound, per cent of control [22]: 100% | kinase still bound, per cent of control [23]: 100% | kinase still bound, per cent of control [24]: 100% | kinase still bound, per cent of control [25]: 95% | kinase still bound, per cent of control [26]: 76% | kinase still bound, per cent of control [27]: 85% | kinase still bound, per cent of control [28]: 100% | kinase still bound, per cent of control [29]: 97% | kinase still bound, per cent of control [30]: 93% | kinase still bound, per cent of control [31]: 99% | kinase still bound, per cent of control [32]: 54% | kinase still bound, per cent of control [33]: 100% | kinase still bound, per cent of control [34]: 92% | kinase still bound, per cent of control [35]: 100% | kinase still bound, per cent of control [36]: 85% | kinase still bound, per cent of control [37]: 100% | kinase still bound, per cent of control [38]: 93% | kinase still bound, per cent of control [39]: 54%
